# Source: ChEMBL document CHEMBL5375952, “Discovery of Novel 8-Hydroxyquinoline Derivatives with Potent In Vitro and In Vivo Antifungal Activity” (J Med Chem, 2023)
# Columns and labels:
# Candida albicans [1] = assay: Antifungal activity against Candida albicans SC5314 assessed as fungal growth inhibition incubated for 48 hrs by broth microdilution method; assay type: functional
# Candida albicans [2] = assay: Antifungal activity against Candida albicans 21 assessed as fungal growth inhibition incubated for 48 hrs by broth microdilution method; assay type: functional
# Candida albicans [3] = assay: Antifungal activity against Candida albicans 22 assessed as fungal growth inhibition incubated for 48 hrs by broth microdilution method; assay type: functional
# Nakaseomyces glabratus [4] = assay: Antifungal activity against Candida glabrata 201 assessed as fungal growth inhibition incubated for 48 hrs by broth microdilution method; assay type: functional
# Nakaseomyces glabratus [5] = assay: Antifungal activity against Candida glabrata 202 assessed as fungal growth inhibition incubated for 48 hrs by broth microdilution method; assay type: functional
# Nakaseomyces glabratus [6] = assay: Antifungal activity against Candida glabrata 205 assessed as fungal growth inhibition incubated for 48 hrs by broth microdilution method; assay type: functional
# Pichia kudriavzevii [7] = assay: Antifungal activity against Candida krusei 68 assessed as fungal growth inhibition incubated for 48 hrs by broth microdilution method; assay type: functional
# Pichia kudriavzevii [8] = assay: Antifungal activity against Candida krusei 477 assessed as fungal growth inhibition incubated for 48 hrs by broth microdilution method; assay type: functional
# Candida parapsilosis [9] = assay: Antifungal activity against Candida parapsilosis 105 assessed as fungal growth inhibition incubated for 48 hrs by broth microdilution method; assay type: functional; details: Lodderomyces parapsilosis
# Candida parapsilosis [10] = assay: Antifungal activity against Candida parapsilosis 107 assessed as fungal growth inhibition incubated for 48 hrs by broth microdilution method; assay type: functional; details: Lodderomyces parapsilosis
# Candida parapsilosis [11] = assay: Antifungal activity against Candida parapsilosis 125 assessed as fungal growth inhibition incubated for 48 hrs by broth microdilution method; assay type: functional; details: Lodderomyces parapsilosis
# Candida tropicalis [12] = assay: Antifungal activity against Candida tropicalis 176 assessed as fungal growth inhibition incubated for 48 hrs by broth microdilution method; assay type: functional
# Candida tropicalis [13] = assay: Antifungal activity against Candida tropicalis 184 assessed as fungal growth inhibition incubated for 48 hrs by broth microdilution method; assay type: functional
# Cryptococcus neoformans [14] = assay: Antifungal activity against Cryptococcus neoformans 443 assessed as fungal growth inhibition incubated for 48 hrs by broth microdilution method; assay type: functional
# Cryptococcus neoformans [15] = assay: Antifungal activity against Cryptococcus neoformans 444 assessed as fungal growth inhibition incubated for 48 hrs by broth microdilution method; assay type: functional
# Cryptococcus neoformans [16] = assay: Antifungal activity against Cryptococcus neoformans 445 assessed as fungal growth inhibition incubated for 48 hrs by broth microdilution method; assay type: functional
# Aspergillus fumigatus [17] = assay: Antifungal activity against Aspergillus fumigatus A assessed as fungal growth inhibition incubated for 48 hrs by broth microdilution method; assay type: functional
# Aspergillus fumigatus [18] = assay: Antifungal activity against Aspergillus fumigatus 7544 assessed as fungal growth inhibition incubated for 48 hrs by broth microdilution method; assay type: functional
# [19] = Cytotoxicity against human Caco-2 cells assessed as cell growth inhibition incubated for 24 hrs by CCK8 assay; assay type: toxicity, cell-based
# Candida albicans [20] = assay: Antifungal activity against Candida albicans 25 assessed as fungal growth inhibition incubated for 48 hrs by broth microdilution method; assay type: functional
# Candida albicans [21] = assay: Antifungal activity against Candida albicans 337 assessed as fungal growth inhibition incubated for 48 hrs by broth microdilution method; assay type: functional
# Candida albicans [22] = assay: Antifungal activity against Candida albicans 338 assessed as fungal growth inhibition incubated for 48 hrs by broth microdilution method; assay type: functional
# [Candida] auris [23] = Antifungal activity against Candida auris 276 assessed as fungal growth inhibition incubated for 48 hrs by broth microdilution method; assay type: functional; details: Candidozyma auris
# [Candida] auris [24] = Antifungal activity against Candida auris 277 assessed as fungal growth inhibition incubated for 48 hrs by broth microdilution method; assay type: functional; details: Candidozyma auris
# [Candida] auris [25] = Antifungal activity against Candida auris 278 assessed as fungal growth inhibition incubated for 48 hrs by broth microdilution method; assay type: functional; details: Candidozyma auris
# [Candida] auris [26] = Antifungal activity against Candida auris CBS 12372 assessed as fungal growth inhibition incubated for 48 hrs by broth microdilution method; assay type: functional; details: Candidozyma auris
# [Candida] auris [27] = Antifungal activity against Candida auris 888 assessed as fungal growth inhibition incubated for 48 hrs by broth microdilution method; assay type: functional; details: Candidozyma auris
# Nakaseomyces glabratus [28] = assay: Antifungal activity against Candida glabrata 203 assessed as fungal growth inhibition incubated for 48 hrs by broth microdilution method; assay type: functional
# Nakaseomyces glabratus [29] = assay: Antifungal activity against Candida glabrata 204 assessed as fungal growth inhibition incubated for 48 hrs by broth microdilution method; assay type: functional
# Nakaseomyces glabratus [30] = assay: Antifungal activity against Candida glabrata 222 assessed as fungal growth inhibition incubated for 48 hrs by broth microdilution method; assay type: functional
# Pichia kudriavzevii [31] = assay: Antifungal activity against Candida krusei 471 assessed as fungal growth inhibition incubated for 48 hrs by broth microdilution method; assay type: functional
# Pichia kudriavzevii [32] = assay: Antifungal activity against Candida krusei 474 assessed as fungal growth inhibition incubated for 48 hrs by broth microdilution method; assay type: functional
# Candida parapsilosis [33] = assay: Antifungal activity against Candida parapsilosis 104 assessed as fungal growth inhibition incubated for 48 hrs by broth microdilution method; assay type: functional; details: Lodderomyces parapsilosis
# Candida parapsilosis [34] = assay: Antifungal activity against Candida parapsilosis ATCC22019 assessed as fungal growth inhibition incubated for 48 hrs by broth microdilution method; assay type: functional; details: Lodderomyces parapsilosis
# Candida parapsilosis [35] = assay: Antifungal activity against Candida parapsilosis 106 assessed as fungal growth inhibition incubated for 48 hrs by broth microdilution method; assay type: functional; details: Lodderomyces parapsilosis
# Candida tropicalis [36] = assay: Antifungal activity against Candida tropicalis 172 assessed as fungal growth inhibition incubated for 48 hrs by broth microdilution method; assay type: functional
# Candida tropicalis [37] = assay: Antifungal activity against Candida tropicalis 177 assessed as fungal growth inhibition incubated for 48 hrs by broth microdilution method; assay type: functional
# Candida tropicalis [38] = assay: Antifungal activity against Candida tropicalis 182 assessed as fungal growth inhibition incubated for 48 hrs by broth microdilution method; assay type: functional
# Cryptococcus neoformans [39] = assay: Antifungal activity against Cryptococcus neoformans H99 assessed as fungal growth inhibition incubated for 48 hrs by broth microdilution method; assay type: functional
# Cryptococcus neoformans [40] = assay: Antifungal activity against Cryptococcus neoformans 56992 assessed as fungal growth inhibition incubated for 48 hrs by broth microdilution method; assay type: functional
# Cryptococcus neoformans [41] = assay: Antifungal activity against Cryptococcus neoformans HN1 assessed as fungal growth inhibition incubated for 48 hrs by broth microdilution method; assay type: functional
# Cryptococcus neoformans [42] = assay: Antifungal activity against Cryptococcus neoformans HN2 assessed as fungal growth inhibition incubated for 48 hrs by broth microdilution method; assay type: functional
# Cryptococcus neoformans [43] = assay: Antifungal activity against Cryptococcus neoformans HN2-40 assessed as fungal growth inhibition incubated for 48 hrs by broth microdilution method; assay type: functional
# Cryptococcus neoformans [44] = assay: Antifungal activity against Cryptococcus neoformans HN15 assessed as fungal growth inhibition incubated for 48 hrs by broth microdilution method; assay type: functional
# Cryptococcus neoformans [45] = assay: Antifungal activity against Cryptococcus neoformans HN17 assessed as fungal growth inhibition incubated for 48 hrs by broth microdilution method; assay type: functional
# Cryptococcus neoformans [46] = assay: Antifungal activity against Cryptococcus neoformans HN19 assessed as fungal growth inhibition incubated for 48 hrs by broth microdilution method; assay type: functional
# Cryptococcus neoformans [47] = assay: Antifungal activity against Cryptococcus neoformans HN20 assessed as fungal growth inhibition incubated for 48 hrs by broth microdilution method; assay type: functional
# Cryptococcus neoformans [48] = assay: Antifungal activity against Cryptococcus neoformans BJ3 assessed as fungal growth inhibition incubated for 48 hrs by broth microdilution method; assay type: functional
# [49] = Antifungal activity against Cryptococcus gattii WM178 assessed as fungal growth inhibition incubated for 48 hrs by broth microdilution method; assay type: functional, Cryptococcus gattii VGI
# [50] = Antifungal activity against Cryptococcus gattii WM179 assessed as fungal growth inhibition incubated for 48 hrs by broth microdilution method; assay type: functional, Cryptococcus gattii VGI
# [51] = Antifungal activity against Cryptococcus gattii E566 assessed as fungal growth inhibition incubated for 48 hrs by broth microdilution method; assay type: functional, Cryptococcus gattii VGI
# [52] = Antifungal activity against Cryptococcus gattii SCZ20024 assessed as fungal growth inhibition incubated for 48 hrs by broth microdilution method; assay type: functional, Cryptococcus gattii VGI
# [53] = Antifungal activity against Cryptococcus gattii SCZ20031 assessed as fungal growth inhibition incubated for 48 hrs by broth microdilution method; assay type: functional, Cryptococcus gattii VGI
smiles,measurement,setting,value
Oc1c(I)cc(Cl)c2cccnc12 [CLIOQUINOL],MIC,Candida albicans [1],0.125 µg/mL
same,MIC,Candida albicans [2],0.125 µg/mL
same,MIC,Candida albicans [3],0.125 µg/mL
same,MIC,Nakaseomyces glabratus [4],0.125 µg/mL
same,MIC,Nakaseomyces glabratus [5],0.125 µg/mL
same,MIC,Nakaseomyces glabratus [6],0.25 µg/mL
same,MIC,Pichia kudriavzevii [7],0.25 µg/mL
same,MIC,Pichia kudriavzevii [8],0.25 µg/mL
same,MIC,Candida parapsilosis [9],0.25 µg/mL
same,MIC,Candida parapsilosis [10],0.5 µg/mL
same,MIC,Candida parapsilosis [11],0.25 µg/mL
same,MIC,Candida tropicalis [12],0.032 µg/mL
same,MIC,Candida tropicalis [13],0.125 µg/mL
same,MIC,Cryptococcus neoformans [14],0.125 µg/mL
same,MIC,Cryptococcus neoformans [15],0.125 µg/mL
same,MIC,Cryptococcus neoformans [16],0.063 µg/mL
same,MIC,Aspergillus fumigatus [17],0.25 µg/mL
same,MIC,Aspergillus fumigatus [18],0.25 µg/mL
same,IC50 at 24 h,[19],19.3 µg/mL
same,MIC,Candida albicans [20],0.125 µg/mL
same,MIC,Candida albicans [21],0.125 µg/mL
same,MIC,Candida albicans [22],0.125 µg/mL
same,MIC,[Candida] auris [23],0.063 µg/mL
same,MIC,[Candida] auris [24],0.063 µg/mL
same,MIC,[Candida] auris [25],0.125 µg/mL
same,MIC,[Candida] auris [26],0.063 µg/mL
same,MIC,[Candida] auris [27],0.25 µg/mL
same,MIC,Nakaseomyces glabratus [28],0.125 µg/mL
same,MIC,Nakaseomyces glabratus [29],0.125 µg/mL
same,MIC,Nakaseomyces glabratus [30],0.25 µg/mL
same,MIC,Pichia kudriavzevii [31],0.25 µg/mL
same,MIC,Pichia kudriavzevii [32],0.25 µg/mL
same,MIC,Candida parapsilosis [33],0.125 µg/mL
same,MIC,Candida parapsilosis [34],0.5 µg/mL
same,MIC,Candida parapsilosis [35],0.25 µg/mL
same,MIC,Candida tropicalis [36],0.125 µg/mL
same,MIC,Candida tropicalis [37],0.125 µg/mL
same,MIC,Candida tropicalis [38],0.125 µg/mL
same,MIC,Cryptococcus neoformans [39],0.125 µg/mL
same,MIC,Cryptococcus neoformans [40],0.063 µg/mL
same,MIC,Cryptococcus neoformans [41],0.125 µg/mL
same,MIC,Cryptococcus neoformans [42],0.125 µg/mL
same,MIC,Cryptococcus neoformans [43],0.063 µg/mL
same,MIC,Cryptococcus neoformans [44],0.125 µg/mL
same,MIC,Cryptococcus neoformans [45],0.125 µg/mL
same,MIC,Cryptococcus neoformans [46],0.063 µg/mL
same,MIC,Cryptococcus neoformans [47],0.063 µg/mL
same,MIC,Cryptococcus neoformans [48],0.063 µg/mL
same,MIC,[49],0.031 µg/mL
same,MIC,[50],0.031 µg/mL
same,MIC,[51],0.031 µg/mL
same,MIC,[52],0.031 µg/mL
same,MIC,[53],0.031 µg/mL
